pIC50: −log10 of the molar value. Starred links: 1 amine or outer side, 2 acyl side, 3 side chain; linkers in the order of their positions; H or OH if unused. Positions of bridges follow the written chain, without caps; N, C: chain ends. Non-standard residues stand in square brackets, D forms with d. Residues, ends and D or L forms follow the SMILES beside them. Chains are numbered I, II in the order given. Actinocin(1to9) = Cc1c2oc3c(C)ccc(C(=O)[*:2])c3nc-2c(C(=O)[*:1])c(N)c1=O; NMeV = CN[C@H](C(=O)O)C(C)C; Sar = CNCC(=O)O
Assays:
HeLa [1] = experiment: Cytotoxicity against human HeLa cells in log-phase after 48 hrs by MTT assay; format: functional, cell-based
HEp-2 [2] = experiment: Cytotoxicity against human Hep2 cells in log-phase after 48 hrs by MTT assay; format: functional, cell-based; settings: HEp-2, 48 h
Vero [3] = experiment: Cytotoxicity against african green monkey Vero cells in lag-phase after 48 hrs by MTT assay; format: cell-based; settings: Chlorocebus sabaeus
Vero [4] = experiment: Cytotoxicity against african green monkey Vero cells in log-phase after 48 hrs by MTT assay; format: cell-based; settings: Chlorocebus sabaeus
HEp-2 [5] = experiment: Cytotoxicity against human Hep2 cells in lag-phase after 48 hrs by MTT assay; format: functional, cell-based; settings: HEp-2, 48 h
HeLa [6] = experiment: Cytotoxicity against human HeLa cells in lag-phase after 48 hrs by MTT assay; format: functional, cell-based

Compound	pIC50 (HeLa [1])	pIC50 (HEp-2 [2])	pIC50 (Vero [3])	pIC50 (Vero [4])	pIC50 (HEp-2 [5])	pIC50 (HeLa [6])
CC(=O)O[C@@H]1C[C@@H](Br)C(C)(C)O[C@]1(C)[C@H]1CC[C@](C)(Cl)[C@@H](Br)C1	< 4.38	< 4.38	4.50	4.47	< 4.38	< 4.38
C=C1C[C@H](OC(C)=O)[C@H](Br)C(C)(C)[C@]12CC=C(C)CC2 [ACETYLDESCHLOROELATOL]	< 4.24	< 4.24	< 4.24	< 4.24	< 4.24	< 4.24
C=C1C[C@H](OC(C)=O)[C@H](Br)C(C)(C)[C@@]12CCC(C)=C(Cl)C2 [ACETYLELATOL]	4.86	4.65	< 4.28	4.35	4.55	4.30
CC1(C)O[C@](C)([C@H]2CC[C@](C)(Cl)[C@@H](Br)C2)[C@H](O)C[C@H]1Br [CAESPITOL]	4.51	< 4.34	4.59	4.59	< 4.34	4.57
Cc1c2oc3c(C)ccc(C(=O)N[C@@H]4C(=O)N[C@H](C(C)C)C(=O)N5CCC[C@H]5C(=O)N(C)CC(=O)N(C)[C@@H](C(C)C)C(=O)O[C@@H]4C)c3nc-2c(C(=O)N[C@@H]2C(=O)N[C@H](C(C)C)C(=O)N3CCC[C@H]3C(=O)N(C)CC(=O)N(C)[C@@H](C(C)C)C(=O)O[C@@H]2C)c(N)c1=O [DACTINOMYCIN] (I: T[dV]P[Sar][NMeV] / II: T[dV]P[Sar][NMeV]; ester I:1-I:C, II:1-II:C; linker I:N-II:N via Actinocin(1to9))	9.00	8.22	7.15	9.00	6.72	7.96
C=C1C[C@H](O)[C@H](Br)C(C)(C)[C@]12CC=C(C)CC2 [DESCHLOROELATOL]	< 4.17	< 4.17	< 4.17	< 4.17	< 4.17	< 4.17
C=C1C[C@H](O)[C@H](Br)C(C)(C)[C@@]12CCC(C)=C(Cl)C2 [ELATOL]	5.89	5.70	5.64	4.60	5.62	5.39

Source: ChEMBL document CHEMBL1158836, “Cytotoxic sesquiterpenes from Aplysia dactylomela” (J Nat Prod, 2005)
